Reference: patent publication US8709738B2, “Methods for predicting cardiac toxicity” (Quintiles Transnational Corporation, priority 2006, dated 2014)
Where “and” joins values, the source holds several entries; their conditions need not be identical. Equal entries are not always repeated. Entries after “also recorded” stand apart in the source; their conditions may differ.

How the values were obtained:
Au565 cells [1] = experiment: Western blot for p-eEF-2; assay type: cell-based; details: FIG. 7A
Description: FIG. 7A a photograph of a Western Blot showing the affect of certain tyrosine kinase inhibitors on expression p-eEF2 and p-AMPKα.
(§1) This can be seen in MDA-MB-468 breast cancer cells where calcium is detected by fluorescently by Fluoro-4. This redistribution of calcium results in the activation and phosphorylation of AMPK. Activated AMPK represses translation by phosphorylation of the translation factor eEF-2 (FIG. 7), which inactivates eEF-2 and represses protein synthesis, a known effect of TKIs.

[2] = tested on: HER2-expressing human cardiomyocytes; experiment: AMPK activation, ATP production and TNFα-induced apoptosis in cardiomyocytes; assay type: cell-based
[3] = tested on: primary human cardiac myocytes; experiment: Lipid staining of cardiomyocytes; assay type: cell-based; details: FIG. 4
Description: FIG. 4 are photographs of primary human cardiac myocytes grown under various conditions and stained for lipids.
FIG. 5 is a bar graph illustrating the percentage of human cardiomyocytes testing positive for lipids under various conditions.

Au565 cells [4] = experiment: Oil red lipid staining of Au565 cells; assay type: cell-based; details: FIG. 2 and FIG. 3
cardiomyocytes cells = experiment: ERRα and MCAD in cardiomyocytes treated with kinase inhibitors; assay type: cell-based; details: FIG. 8
Description: FIG. 8 is a photograph of ERRα and MCAD in cardiomyocytes cells with and without treatment by various kinase inhibitors.
ERRα plays a role in lipid metabolism in cardiac cells, and MCAD is an enzyme that breaks down lipids and fatty acids. Mutations in MCAD is a common genetic disorder, especially in those of northern European descent.

[5] = tested on: normal fat cells grown in culture; experiment: Lipid stored in cultured fat cells (Oil red O staining); assay type: cell-based; details: normal fat cells (adipocytes) grown in culture, also cardiac cells
Description: Such studies can be conducted using Oil red 0 staining for lipids.
To this end at least a portion of a mammal or tissue can be treated with a kinase inhibitor such that the amount of lipid in the cells is reduced. Any suitable kinase inhibitor can be used. Methods for determining suitable inhibitors are well known. For example, samples of adipocytes can be grown in the presence and absence of a kinase inhibitor and stained with Oil red 0 by known methods to determine whether the kinase inhibitor causes a reduction in stored fat. […] Exemplary kinase inhibitors that are suitable for the invention include erbB inhibitors, especially including GW2974, GW572016, and the like. […] Au565 cells were grown under normal conditions known in the art and treated for 2 days with GW2974 (25 μM). The cells were collected, washed and sonicated in water (2,000,000 cells in 200 μL of water). The cells were spun down and were tested for acylcamitines (byproducts of mitochondrial fatty acid oxidation) by MS/MS for intraceullar metabolites.

Au565 cells [6] = experiment: Acylcarnitines (byproducts of mitochondrial fatty acid oxidation) by MS/MS in treated Au565 cells; assay type: cell-based; details: Au565 cell pellet, GW2974 25 μM, 2 days
Description: In addition, tyrosine kinase inhibitors can be used to reduce fat in cells, particularly cells that are otherwise normal or that lack protein tyrosine kinase activity mediated disease. To this end at least a portion of a mammal or tissue can be treated with a kinase inhibitor such that the amount of lipid in the cells is reduced. Any suitable kinase inhibitor can be used. Methods for determining suitable inhibitors are well known. For example, samples of adipocytes can be grown in the presence and absence of a kinase inhibitor and stained with Oil red 0 by known methods to determine whether the kinase inhibitor causes a reduction in stored fat. Those kinase inhibitors that cause an observable reduction in fat storage are suitable for the present invention. Exemplary kinase inhibitors that are suitable for the invention include erbB inhibitors, especially including GW2974, GW572016, and the like. […] Au565 cells were grown under normal conditions known in the art and treated for 2 days with GW2974 (25 μM). The cells were collected, washed and sonicated in water (2,000,000 cells in 200 μL of water). The cells were spun down and were tested for acylcamitines (byproducts of mitochondrial fatty acid oxidation) by MS/MS for intraceullar metabolites.

[7] = tested on: MDA-MB-468 breast cancer cells; experiment: Intracellular calcium detected by Fluoro-4; assay type: cell-based; details: MDA-MB-468 cells, Fluoro-4, FIG. 6
Description: FIG. 6 are photographs of MDA-MB-468 cells treated by GW-2974 and intracellular Ca detected by Fluoro-4.
as §1

Au565 cells [8] = experiment: p-eEF-2 expression by IHC; assay type: cell-based; details: FIG. 7B
Description: FIG. 7B is a photograph of stained cells showing the expression of p-eEF2 in Au565 cells in the presence of various compounds.

Au565 cells [9] = experiment: Microarray mRNA expression profile of Au565 cells treated with GW2974; assay type: cell-based, human; details: GW2974 25 μM vs untreated
Method: Au565 cells were grown under normal conditions and were untreated or treated with GW2974 (25 μM). Cells were pelleted, snap frozen in liquid nitrogen and subjected to microarray analysis. RNA was isolated using the Agilent Total RNA Isolation Kit. Cy3 and Cy5 labeled cRNA was prepared using the Agilent Low RNA Input Fluorescent Linear Amplification Kit. Labeled cRNAs were hybridized to a G4110A Human 1A(V2) microarray consisting of 60-mer oligonucleotides representing over 18K well-characterized, full length, human genes.

CN(C)c1cc2c(Nc3ccc4c(cnn4Cc4ccccc4)c3)ncnc2cn1 [GW2974]
p-eEF-2 by western blot (Au565 cells [1]): dramatically increased | AMPK activation [2]: can activate AMPK | ATP production [2]: increases ATP production | cardiomyocyte apoptosis / cell death induced by TNFα ([2]; TNFα): protecting against apoptosis induced by TNFα | lipids in cardiomyocyte cells compared with untreated cells [3]: not decrease | lipids in Au565 cells (oil red staining) (Au565 cells [4]): reduced | MCAD expression (cardiomyocytes cells): completely absent | lipid stored within fat cells [5]: rapidly disappears; also recorded: lose lipid | Acylcarnitines C2 (Au565 cells [6]): 258.88 pmoles of protein | Acylcarnitines C16 (Au565 cells [6]): 0.83 pmoles of protein | Acylcarnitines C18:1 (Au565 cells [6]): 4.1 pmoles of protein | intracellular calcium distribution [7]: redistribution of intracellular calcium | p-eEF-2 expression by IHC (Au565 cells [8]): do | ACAT2: GW2974 change compared to control (Au565 cells [9]): −5.3 | AKAP5: GW2974 change compared to control (Au565 cells [9]): −7.3x | AVIL: GW2974 change compared to control (Au565 cells [9]): 4.2x | BBOX1: GW2974 change compared to control (Au565 cells [9]): 5.1 | CAMK4: GW2974 change compared to control (Au565 cells [9]): 4.5x | CASK: GW2974 change compared to control (Au565 cells [9]): −4.2x | CCR2: GW2974 change compared to control (Au565 cells [9]): −5.0x | CD38: GW2974 change compared to control (Au565 cells [9]): −4.4x | CLCA1: GW2974 change compared to control (Au565 cells [9]): −6.7x | CLSP: GW2974 change compared to control (Au565 cells [9]): −4.0x | CYP2C8: GW2974 change compared to control (Au565 cells [9]): 4.5x | ELOVL2: GW2974 change compared to control (Au565 cells [9]): −4.4x | FABP1: GW2974 change compared to control (Au565 cells [9]): −7.2 | FASN: GW2974 change compared to control (Au565 cells [9]): −4.3x | FKSG14: GW2974 change compared to control (Au565 cells [9]): −4.6x | FLJ12476: GW2974 change compared to control (Au565 cells [9]): 5.0x | FREQ: GW2974 change compared to control (Au565 cells [9]): −5.3x | GLS: GW2974 change compared to control (Au565 cells [9]): 5.1 | GNB5: GW2974 change compared to control (Au565 cells [9]): −4.1x | GSTT2: GW2974 change compared to control (Au565 cells [9]): −5.3 | HPCAL1: GW2974 change compared to control (Au565 cells [9]): −4.5x | HSPA8: GW2974 change compared to control (Au565 cells [9]): −4.2x | LDLR: GW2974 change compared to control (Au565 cells [9]): −5.2x | NRXN3: GW2974 change compared to control (Au565 cells [9]): 4.58x and 4.6x | PFKL: GW2974 change compared to control (Au565 cells [9]): −4.7 | PRKG1: GW2974 change compared to control (Au565 cells [9]): 6.5x and 6.51x | SAT: GW2974 change compared to control (Au565 cells [9]): 4.4 | SCN1A: GW2974 change compared to control (Au565 cells [9]): 4.1x | SOAT1: GW2974 change compared to control (Au565 cells [9]): −4.0x | STK33: GW2974 change compared to control (Au565 cells [9]): −5.3x | TGFβ1: GW2974 change compared to control (Au565 cells [9]): 5.31x | S100A9: GW2974 change compared to control (Au565 cells [9]; Table IV A): −5.5x | S100A9: GW2974 change compared to control (Au565 cells [9]; Table IV C): −5.4

COc1cc2ncnc(Nc3ccc(F)c(Cl)c3)c2cc1OCCCN1CCOCC1 [Iressa]
p-eEF-2 expression by IHC (Au565 cells [8]): do

CS(=O)(=O)CCNCc1ccc(-c2ccc3ncnc(Nc4ccc(OCc5cccc(F)c5)c(Cl)c4)c3c2)o1 [lapatinib]
lipid stored within fat cells [5]: loss of fat | lipid stored within fat cells ([5]; listed as GW572016): rapidly disappears
